Several values for one entry are separate records, joined by “and”; a condition that tells them apart may be missing. Identical values can stand only once. These antisense oligonucleotides have a phosphorothioate backbone; sugars and methylation of C are not fully specified.

Common to all, as to details: ASO
For data set [1], the target named is ICAM1.
The target in data set [2] is VCAM1.
Data set [3] addresses PDPK1.
Further: test concentration or dose not given here.

CTCATCCAGCAGGCTCAGGG: in data set [1], the remaining target (mRNA or protein) (fraction of control) worked out at 0.75. CTCTCATCTTGATGGC showed a remaining target (mRNA or protein) (fraction of control) in data set [2] of 0.55. The sequence CTCTGAGTAGCAGAGG yielded a remaining target (mRNA or protein) (fraction of control) in data set [1] of 0.76. Same read-out and setting: the same measure for CTCTGAGTAGCAGAGGAGCTC: 0.17; for CTGAGGTTGC: 0.95.

For the sequence CTGTGTGTCCTGTCTCCGCT, the remaining target (mRNA or protein) (fraction of control) in data set [2] was determined as 0.27. The same measure, in the same setting: the same measure for CTTGAACAATTAATTCCACCT: 0.37; for CTTTGACTTCTTGCTCACAGC: 0.07. Regarding GACACTCAATAAATAGCTGGT, in data set [1], the remaining target (mRNA or protein) (fraction of control) is 0.5. As to GAGGAGCTCAGCGTCGACTG, the remaining target (mRNA or protein) (fraction of control) in data set [1] was 0.83 and ≥ 1. As for GAGGCTGAGGTGGGAGGA, the remaining target (mRNA or protein) (fraction of control) in data set [1] came to 0.98. Same read-out and setting: next, GAGTAGCAGAGGAGC: 0.61; GATGCTACACATGTC: 0.58. For the sequence GCAATCTTGCTATGGCATAA, in data set [2], the remaining target (mRNA or protein) (fraction of control) turned out to be 0.48. On the same count and under the same terms, next, GCCAGTGAGGCCCG: 0.35. GCCCATTGCAGGGCCAGGGC: the remaining target (mRNA or protein) (fraction of control) in data set [1] was determined as 0. Regarding GCCTGGGAGGGTATTCAGCT, the remaining target (mRNA or protein) (fraction of control) in data set [2] came out at 0.58. The same measure, in the same setting: the same measure for GCCTGGGAGGGTATTCAGCTC: 0.3. For the sequence GCGTCGACTGGGGCGCGTGAT, the remaining target (mRNA or protein) (fraction of control) in data set [1] is 0.95. On the same count and under the same terms, the same measure for GCTACACATGTCTATGGAGGG: 0.35; for GCTTTCCCGGAAA: 0.82; for GCTTTCCCGGAAACCTCGCGC: 0.48. As to GGAAACCTCGCGC, the remaining target (mRNA or protein) (fraction of control) in data set [1] was found to be 0.91. The same measure, in the same setting: the same measure for GGAGCCATAGCGAGGC: 0.35.

GGAGCTCAGCGTCGA had a remaining target (mRNA or protein) (fraction of control) in data set [1] of 0.85.

As for GGCAGAAATGTATGTGGGTGG, the remaining target (mRNA or protein) (fraction of control) in data set [1] is 0.68. With GGCATTTTAAGTTGCTGTCG, the remaining target (mRNA or protein) (fraction of control) in data set [2] came to 0.34. As to GGCCACATTGGGAAAGTTGC, the remaining target (mRNA or protein) (fraction of control) in data set [2] stood at 0.29.

GGCTGAGGTTG: the remaining target (mRNA or protein) (fraction of control) in data set [1] is 0.9. Still for that read-out and setting: the same measure for GGGCCACTTCTTCTGTAA: 0.33; for GGGCGCGTGATCCTTATAGC: 0.8; for GGGGCGGTGCTGCTTTCCCGG: at least 1.

Sequence GGGTTGAAGCCATTGCAGGG displayed a remaining target (mRNA or protein) (fraction of control) in data set [1] of 0.45. Take GGTATTCAGCTCCTGAAG: in data set [2], the remaining target (mRNA or protein) (fraction of control) amounted to 0.69. In the case of GGTTCCAAAACCCTT, the remaining target (mRNA or protein) (fraction of control) in data set [2] is 0.42. GGTTGCAACTCTGAG displayed a remaining target (mRNA or protein) (fraction of control) in data set [1] of 0.36. As for GTCTTTGTTGTTTTCTCTTCC, the remaining target (mRNA or protein) (fraction of control) in data set [2] amounted to 0.41. As for TCTGAGTAGCAGAGGAGCTCA, the remaining target (mRNA or protein) (fraction of control) in data set [1] was 0.3.

For the sequence TCTGAGTAGCAGAGGAGCTCAG, the remaining target (mRNA or protein) (fraction of control) in data set [1] stood at 0.33.

In data set [2], TGAACATATCAAGCATTAGC came in with a remaining target (mRNA or protein) (fraction of control) of 0.53.

As for TGATCCTTTATAGCGCTAGCC, the remaining target (mRNA or protein) (fraction of control) in data set [1] was 0.9. In turn, TGCATCCCCCAGGCCACCAT showed a remaining target (mRNA or protein) (fraction of control) in data set [1] of 0. On the same count and under the same terms, the same measure for TGCCAGTCCACATAGTGTTT: 0.25; for TGCCCATCAGGGCAGTTTGA: 0.4; for TGCTTACCCTCCCACAGCAG: 0.1.

TGGCATCTAAAACCAAAA had a remaining target (mRNA or protein) (fraction of control) in data set [3] of at least 1.

TGGCTGGCAGGTGGTCTG registered a remaining target (mRNA or protein) (fraction of control) in data set [3] of 0.2. TGGGAGCCATAGCGAG gave a remaining target (mRNA or protein) (fraction of control) in data set [1] of 0.55. The same measure, in the same setting: the same measure for TGGGAGCCATAGCGAGGC: 0.38.

In data set [2], TTACCATTGACATAAAGTGTT displayed a remaining target (mRNA or protein) (fraction of control) of 0.52. In turn, TTGAGAAAGCTTTATTAACT gave a remaining target (mRNA or protein) (fraction of control) in data set [1] of at least 1.

The sequence TTGCTGTTCCAAAATCTG had a remaining target (mRNA or protein) (fraction of control) in data set [3] of at least 1. TTGGCCCTGGCTTGTTTG came in with a remaining target (mRNA or protein) (fraction of control) in data set [3] of 0.23.

TTGGGACAATGTCTCAGCTT: the remaining target (mRNA or protein) (fraction of control) in data set [1] came to 0.25. In turn, TTTAAGCAATCTTGCTATGGC displayed a remaining target (mRNA or protein) (fraction of control) in data set [2] of 0.81.

TTTAAGTAGTTCTCCATT showed a remaining target (mRNA or protein) (fraction of control) in data set [3] of 0.39. Still for that read-out and setting: next, TTTATGATATGTCGCTTC: at least 1.

In data set [2], TTTGTGTCCCACCTG had a remaining target (mRNA or protein) (fraction of control) of 0.1. The sequence TTTGTTGACAGGATCCAC had a remaining target (mRNA or protein) (fraction of control) in data set [3] of 0.72.

These data come from the OligoGym collection.
